The source of these data is PubChem BioAssay (NCI).

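Grown in 96-well plates, cells were treated for 48 hours with each compound at five concentrations. Insufficient inhibition: endpoint recorded as highest concentration tested. TGI: concentration producing complete growth inhibition.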

The first assay relates to SK-MEL-28 melanoma. Kind of assay: inhibition of tumour cell growth, NCI panel, 48 h.
In turn, `O=[N+]([O-])c1cccc2c(N=Nc3ccc4ccccc4c3O)c(O)cc(S(=O)(=O)O)c12` yielded a TGI of more than 100 µM.

The test system of the next assay is OVCAR-4 ovarian. The assay can be described thus: inhibition of tumour cell growth, NCI panel, 48 h.
The compound `CON(C)C(=O)C1CCCO1` (stereo unspecified) had a TGI of more than 100 µM.

Take `COc1ccc([C@H]2C=[N+]([O-])O[C@H](OC3CCCC3)[C@@H]2OC(C)=O)cc1OC`: the TGI was more than 100 µM.

Consider `O=[N+]([O-])c1cccc2c(N=Nc3ccc4ccccc4c3O)c(O)cc(S(=O)(=O)O)c12`, for which the TGI is more than 100 µM.

A further assay concerns A549 NSCLC. The assay can be described thus: inhibition of tumour cell growth, NCI panel, 48 h.
Consider `CON(C)C(=O)C1CCCO1` (stereo unspecified), for which the TGI is more than 100 µM.

`O=C1OC(c2ccccc2)N(C(=O)c2ccccc2)C1Cc1ccc(OCc2ccccc2)cc1` (stereo unspecified) had a TGI of more than 100 µM.

`COc1ccc([C@H]2C=[N+]([O-])O[C@H](OC3CCCC3)[C@@H]2OC(C)=O)cc1OC` displayed a TGI of more than 100 µM.

For the compound `O=[N+]([O-])c1cccc2c(N=Nc3ccc4ccccc4c3O)c(O)cc(S(=O)(=O)O)c12`, the TGI was more than 100 µM.

A further assay has as its system MCF7 breast. Kind of assay: inhibition of tumour cell growth, NCI panel, 48 h.
Consider `CON(C)C(=O)C1CCCO1` (stereo unspecified), for which the TGI was more than 100 µM.

`O=C1OC(c2ccccc2)N(C(=O)c2ccccc2)C1Cc1ccc(OCc2ccccc2)cc1` (stereo unspecified) came in with a TGI of 62.3 µM.

Compound `COc1ccc([C@H]2C=[N+]([O-])O[C@H](OC3CCCC3)[C@@H]2OC(C)=O)cc1OC` displayed a TGI of 49.5 µM.

A further assay deals with OVCAR-5 ovarian. Kind of assay: inhibition of tumour cell growth, NCI panel, 48 h.
On to `CON(C)C(=O)C1CCCO1` (stereo unspecified), for which the TGI is more than 100 µM.

For `O=C1OC(c2ccccc2)N(C(=O)c2ccccc2)C1Cc1ccc(OCc2ccccc2)cc1` (stereo unspecified), the TGI is more than 100 µM.

`O=[N+]([O-])c1cccc2c(N=Nc3ccc4ccccc4c3O)c(O)cc(S(=O)(=O)O)c12` yielded a TGI of more than 100 µM.

In the next assay the test system is HCC-2998 colon. Kind of assay: inhibition of tumour cell growth, NCI panel, 48 h.
`O=C1OC(c2ccccc2)N(C(=O)c2ccccc2)C1Cc1ccc(OCc2ccccc2)cc1` (stereo unspecified) came in with a TGI of more than 100 µM.

Compound `COc1ccc([C@H]2C=[N+]([O-])O[C@H](OC3CCCC3)[C@@H]2OC(C)=O)cc1OC` came in with a TGI of 72.8 µM.

In another assay the test system is NCI-H460 lung. The assay can be described thus: inhibition of tumour cell growth, NCI panel, 48 h.
Compound `CON(C)C(=O)C1CCCO1` (stereo unspecified) had a TGI of more than 100 µM.

`O=C1OC(c2ccccc2)N(C(=O)c2ccccc2)C1Cc1ccc(OCc2ccccc2)cc1` (stereo unspecified): the TGI is more than 100 µM.

The compound `COc1ccc([C@H]2C=[N+]([O-])O[C@H](OC3CCCC3)[C@@H]2OC(C)=O)cc1OC` yielded a TGI of more than 100 µM.

A further assay has as its system NCI-H23 lung. Kind of assay: inhibition of tumour cell growth, NCI panel, 48 h.
As for `CON(C)C(=O)C1CCCO1` (stereo unspecified), the TGI was more than 100 µM.

In turn, `O=C1OC(c2ccccc2)N(C(=O)c2ccccc2)C1Cc1ccc(OCc2ccccc2)cc1` (stereo unspecified) displayed a TGI of more than 100 µM.

Compound `COc1ccc([C@H]2C=[N+]([O-])O[C@H](OC3CCCC3)[C@@H]2OC(C)=O)cc1OC` yielded a TGI of 57.2 µM.

For the compound `O=[N+]([O-])c1cccc2c(N=Nc3ccc4ccccc4c3O)c(O)cc(S(=O)(=O)O)c12`, the TGI was more than 100 µM.

In the next assay the test system is NCI-H226 lung. Kind of assay: inhibition of tumour cell growth, NCI panel, 48 h.
As for `CON(C)C(=O)C1CCCO1` (stereo unspecified), the TGI is more than 100 µM.

With `O=C1OC(c2ccccc2)N(C(=O)c2ccccc2)C1Cc1ccc(OCc2ccccc2)cc1` (stereo unspecified), the TGI was more than 100 µM.

In turn, `COc1ccc([C@H]2C=[N+]([O-])O[C@H](OC3CCCC3)[C@@H]2OC(C)=O)cc1OC` showed a TGI of more than 100 µM.

`O=[N+]([O-])c1cccc2c(N=Nc3ccc4ccccc4c3O)c(O)cc(S(=O)(=O)O)c12` came in with a TGI of more than 100 µM.

A further assay has as its system HT29 colon. The assay can be described thus: inhibition of tumour cell growth, NCI panel, 48 h.
With `CON(C)C(=O)C1CCCO1` (stereo unspecified), the TGI is more than 100 µM.

With `COc1ccc([C@H]2C=[N+]([O-])O[C@H](OC3CCCC3)[C@@H]2OC(C)=O)cc1OC`, the TGI came to 54.7 µM.

For the compound `O=[N+]([O-])c1cccc2c(N=Nc3ccc4ccccc4c3O)c(O)cc(S(=O)(=O)O)c12`, the TGI is more than 100 µM.

A further assay relates to SF-295 CNS. Kind of assay: inhibition of tumour cell growth, NCI panel, 48 h.
Compound `CON(C)C(=O)C1CCCO1` (stereo unspecified) had a TGI of more than 100 µM.

`COc1ccc([C@H]2C=[N+]([O-])O[C@H](OC3CCCC3)[C@@H]2OC(C)=O)cc1OC` had a TGI of more than 100 µM.

The compound `O=[N+]([O-])c1cccc2c(N=Nc3ccc4ccccc4c3O)c(O)cc(S(=O)(=O)O)c12` showed a TGI of more than 100 µM.

For the next assay, the system named is HCT-116 colon. Kind of assay: inhibition of tumour cell growth, NCI panel, 48 h.
Take `CON(C)C(=O)C1CCCO1` (stereo unspecified): the TGI was more than 100 µM.

Take `O=C1OC(c2ccccc2)N(C(=O)c2ccccc2)C1Cc1ccc(OCc2ccccc2)cc1` (stereo unspecified): the TGI was more than 100 µM.

The compound `O=[N+]([O-])c1cccc2c(N=Nc3ccc4ccccc4c3O)c(O)cc(S(=O)(=O)O)c12` yielded a TGI of more than 100 µM.

In another assay the test system is OVCAR-3 ovarian. The assay can be described thus: inhibition of tumour cell growth, NCI panel, 48 h.
With `CON(C)C(=O)C1CCCO1` (stereo unspecified), the TGI was more than 100 µM.

`COc1ccc([C@H]2C=[N+]([O-])O[C@H](OC3CCCC3)[C@@H]2OC(C)=O)cc1OC` came in with a TGI of 72.4 µM.

In turn, `O=[N+]([O-])c1cccc2c(N=Nc3ccc4ccccc4c3O)c(O)cc(S(=O)(=O)O)c12` displayed a TGI of more than 100 µM.

For the next assay, the system named is SK-MEL-5 melanoma. The assay can be described thus: inhibition of tumour cell growth, NCI panel, 48 h.
On to `CON(C)C(=O)C1CCCO1` (stereo unspecified), for which the TGI is more than 100 µM.

In turn, `O=C1OC(c2ccccc2)N(C(=O)c2ccccc2)C1Cc1ccc(OCc2ccccc2)cc1` (stereo unspecified) showed a TGI of more than 100 µM.

`COc1ccc([C@H]2C=[N+]([O-])O[C@H](OC3CCCC3)[C@@H]2OC(C)=O)cc1OC` showed a TGI of 29.6 µM.

For the compound `O=[N+]([O-])c1cccc2c(N=Nc3ccc4ccccc4c3O)c(O)cc(S(=O)(=O)O)c12`, the TGI was more than 100 µM.

Another assay has as its system RXF 393 renal. The assay can be described thus: inhibition of tumour cell growth, NCI panel, 48 h.
Regarding `COc1ccc([C@H]2C=[N+]([O-])O[C@H](OC3CCCC3)[C@@H]2OC(C)=O)cc1OC`, the TGI was determined as 29.8 µM.

In turn, `O=[N+]([O-])c1cccc2c(N=Nc3ccc4ccccc4c3O)c(O)cc(S(=O)(=O)O)c12` gave a TGI of more than 100 µM.

Another assay relates to SK-OV-3 ovarian. The assay can be described thus: inhibition of tumour cell growth, NCI panel, 48 h.
Regarding `CON(C)C(=O)C1CCCO1` (stereo unspecified), the TGI is more than 100 µM.

The compound `O=C1OC(c2ccccc2)N(C(=O)c2ccccc2)C1Cc1ccc(OCc2ccccc2)cc1` (stereo unspecified) showed a TGI of more than 100 µM.

Compound `COc1ccc([C@H]2C=[N+]([O-])O[C@H](OC3CCCC3)[C@@H]2OC(C)=O)cc1OC` showed a TGI of more than 100 µM.

On to `O=[N+]([O-])c1cccc2c(N=Nc3ccc4ccccc4c3O)c(O)cc(S(=O)(=O)O)c12`, for which the TGI was more than 100 µM.

The next assay relates to HL-60(TB) leukemia. Kind of assay: inhibition of tumour cell growth, NCI panel, 48 h.
In the case of `CON(C)C(=O)C1CCCO1` (stereo unspecified), the TGI was more than 100 µM.

In turn, `O=C1OC(c2ccccc2)N(C(=O)c2ccccc2)C1Cc1ccc(OCc2ccccc2)cc1` (stereo unspecified) registered a TGI of more than 100 µM.
